Assay results taken from US20200345645A1, “COMPOSITIONS COMPRISING INDIGO AND/OR AN INDIGO DERIVATIVE AND METHODS OF USE THEREOF” (Azora Therapeutics, Inc., priority 2019, published 2020).
Like-named read-outs stand apart in the source and are kept apart here.

Assays:
[1] = target: T1, aryl hydrocarbon receptor (Homo sapiens, UniProt P35869); details: background statement, "It is known", cited from earlier work
T1 sequence (P35869 11-848): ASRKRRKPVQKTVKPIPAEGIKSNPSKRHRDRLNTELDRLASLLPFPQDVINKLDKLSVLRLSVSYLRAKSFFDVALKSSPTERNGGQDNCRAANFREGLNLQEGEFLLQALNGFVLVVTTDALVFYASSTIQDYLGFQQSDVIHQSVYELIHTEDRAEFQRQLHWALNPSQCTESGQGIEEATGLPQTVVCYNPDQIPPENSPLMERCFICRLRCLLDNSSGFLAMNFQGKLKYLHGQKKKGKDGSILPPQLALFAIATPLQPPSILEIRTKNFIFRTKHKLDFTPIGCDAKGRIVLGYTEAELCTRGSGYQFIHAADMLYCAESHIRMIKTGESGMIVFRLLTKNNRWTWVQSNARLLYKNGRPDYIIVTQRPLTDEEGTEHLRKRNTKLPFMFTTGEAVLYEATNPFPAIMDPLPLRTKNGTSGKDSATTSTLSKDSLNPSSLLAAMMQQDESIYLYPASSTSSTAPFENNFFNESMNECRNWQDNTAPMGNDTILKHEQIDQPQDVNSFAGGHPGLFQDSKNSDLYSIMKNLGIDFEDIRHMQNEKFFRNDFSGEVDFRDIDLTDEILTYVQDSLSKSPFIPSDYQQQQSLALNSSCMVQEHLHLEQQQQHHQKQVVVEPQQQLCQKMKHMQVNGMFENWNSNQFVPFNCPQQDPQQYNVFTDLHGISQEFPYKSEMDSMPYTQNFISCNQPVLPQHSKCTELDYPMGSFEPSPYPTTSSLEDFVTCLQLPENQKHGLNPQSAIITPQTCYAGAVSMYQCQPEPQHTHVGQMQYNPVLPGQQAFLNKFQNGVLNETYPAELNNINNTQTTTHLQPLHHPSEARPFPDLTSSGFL

[2] = target: human AhR (Homo sapiens, UniProt P35869); details: 24 hours incubation, reporter cells from human Huh7 cells expressing human AhR and ARNT
Method: Each was incubated for 24 hours with reporter cells made from human Huh7 cells expressing human AhR and ARNT with luciferase expressed behind a genetic response element that responds to dimerized AhR/ARNT.
After incubation, the medium was aspirated and a detection reagent was added followed by a measurement of the relative luminescent units compared to a negative control of DMSO.

[3] = Release of indirubin into fasted-state simulated intestinal fluid (FaSSIF), HPLC; format: physicochemical; details: for Amount of indirubin in % Q (measured amount in solution divided by theoretical maximum) / Amount of indirubin in solution: FaSSIF pH 6.5, 37° C., 2 mg total indirubin in 500 mL; for Amount of indirubin in solution: mean of six replicates
Method: Additional solid amorphous dispersions of synthetic indirubin in six different hydrophilic carrier polymers-povidone, PVAc-PVCap-PEG, (SOLUPLUS®), copovidone, HPMC-AS, HPMCP and polyvinyl acetate phthalate (PVAP)—were prepared for a further study, as described in Example 15. In this study, dispersions with indirubin to polymer ratios of 1:9 or 0.5:9.5 were prepared, and the release of indirubin into fasted-state simulated intestinal fluid was determined. For comparison, Indigo naturalis and crystalline synthetic indirubin were also tested. The amount of indirubin in fasted-state simulated intestinal fluid was determined by HPLC for samples of the fluid taken. The mean amount of indirubin in solution at each time point was determined, and is shown in Table 1 in units of μg/L and in Table 2 as a percentage, referred to a % Q, of measured amount (mass) of indirubin in solution divided by the theoretical maximum amount (mass) of indirubin in solution.
Solid amorphous dispersions of synthetic indirubin in six different hydrophilic carrier polymers-povidone, PVAc-PVCap-PEG, (SOLUPLUS®), copovidone, HPMC-AS, HPMCP and polyvinyl acetate phthalate (PVAP) with indirubin to polymer ratios of 1:9 or 0.5 to 9.5 were prepared as described in Example 13. For comparison, Indigo naturalis and crystalline synthetic indirubin were also tested. All test articles were normalized to a total indirubin of 2 mg and added to 500 mL of fasted-state simulated intestinal fluid (FaSSIF) medium consisting of 3 mM taurocholate, 0.75 mM phospholipids, 148 mM sodium, 106 mM chloride, and 29 mM phosphate at pH 6.5. Six replicates of each test article were assessed under the following testing conditions: mixing with USP #2 paddles at 100 RPM at 37° C. with sampling of 5 mL at each time point and filtration through a 10 μm filter. […] The mean amount of indirubin in solution at each time point was determined, and is shown in Table 1 in units of μg/L and in Table 2 as a percentage, referred to a % Q, of measured amount (mass) of indirubin in solution divided by the theoretical maximum amount (mass) of indirubin in solution.

Chain of human AhR (P27540 whole entry partner, one chain of several): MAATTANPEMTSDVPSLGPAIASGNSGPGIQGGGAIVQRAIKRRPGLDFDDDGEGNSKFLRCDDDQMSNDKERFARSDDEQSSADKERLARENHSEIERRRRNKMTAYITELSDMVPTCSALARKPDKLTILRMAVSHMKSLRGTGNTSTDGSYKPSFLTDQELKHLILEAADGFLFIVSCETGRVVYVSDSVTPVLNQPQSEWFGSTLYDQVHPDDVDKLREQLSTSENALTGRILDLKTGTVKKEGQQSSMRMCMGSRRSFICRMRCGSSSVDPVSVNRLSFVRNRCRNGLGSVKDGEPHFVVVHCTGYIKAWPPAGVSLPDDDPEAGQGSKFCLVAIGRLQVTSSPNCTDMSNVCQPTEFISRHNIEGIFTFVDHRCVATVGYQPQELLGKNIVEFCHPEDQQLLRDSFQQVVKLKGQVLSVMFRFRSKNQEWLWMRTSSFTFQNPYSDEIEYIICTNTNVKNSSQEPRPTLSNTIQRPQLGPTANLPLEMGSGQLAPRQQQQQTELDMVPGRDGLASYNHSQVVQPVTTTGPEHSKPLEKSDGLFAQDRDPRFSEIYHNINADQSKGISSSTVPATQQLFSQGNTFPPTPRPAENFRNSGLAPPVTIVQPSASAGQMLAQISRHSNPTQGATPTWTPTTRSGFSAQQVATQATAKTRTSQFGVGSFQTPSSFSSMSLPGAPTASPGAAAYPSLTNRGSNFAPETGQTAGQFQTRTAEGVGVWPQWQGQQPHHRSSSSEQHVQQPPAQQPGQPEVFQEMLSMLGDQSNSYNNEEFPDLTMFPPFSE

| Compound | Agonism of the aryl hydrocarbon receptor [1] | Agonism of the aryl hydrocarbon receptor ([1]; listed as Indigo) | Activation of the AhR receptor (fold activation relative to DMSO, FIG. 4) [2] | Amount of indirubin in % Q (measured amount in solution divided by theoretical maximum) ([3]; 5 min) [% Q] | Amount of indirubin in solution ([3]; 5 min) [µg/L] | Amount of indirubin in % Q (measured amount in solution divided by theoretical maximum) ([3]; 10 min) [% Q] | Amount of indirubin in solution ([3]; 10 min) [µg/L] | Amount of indirubin in % Q (measured amount in solution divided by theoretical maximum) ([3]; 20 min) [% Q] | Amount of indirubin in solution ([3]; 20 min) [µg/L] | Amount of indirubin in % Q (measured amount in solution divided by theoretical maximum) ([3]; 30 min) [% Q] | Amount of indirubin in solution ([3]; 30 min) [µg/L] | Amount of indirubin in % Q (measured amount in solution divided by theoretical maximum) ([3]; 60 min) [% Q] | Amount of indirubin in solution ([3]; 60 min) [µg/L] | Amount of indirubin in % Q (measured amount in solution divided by theoretical maximum) ([3]; 90 min) [% Q] | Amount of indirubin in solution ([3]; 90 min) [µg/L] | Amount of indirubin in % Q (measured amount in solution divided by theoretical maximum) ([3]; 120 min) [% Q] | Amount of indirubin in solution ([3]; 120 min) [µg/L] | Release of indirubin, of the total amount of indirubin ([3]; FaSSIF, summary of Tables 1 and 2) |
| --- | --- | --- | --- | --- | --- | --- | --- | --- | --- | --- | --- | --- | --- | --- | --- | --- | --- | --- |
| O=C1/C(=C2\Nc3ccccc3C2=O)Nc2ccccc21 [indigo] | potent agonists | less potent than indirubin | – | – | – | – | – | – | – | – | – | – | – | – | – | – | – | – |
| O=C1Nc2ccccc2/C1=C1/Nc2ccccc2C1=O [Synthetic Indirubin, indirubin] | potent agonists | – | potent activator | 0.02 | 0.02 | 0.03 | 0.03 | 0.03 | 0.03 | 0.03 | 0.03 | 0.04 | 0.04 | 0.05 | 0.05 | 0.07 | 0.07 | Less than 0.1% |
